{"source": "patent US20240180868A1", "about": "“PHARMACEUTICAL COMPOSITION FOR PREVENTION OR TREATMENT OF VIRUS INFECTION, THE PHARMACEUTICAL COMPOSITION COMPRISING ROTTLERIN AS ACTIVE INGREDIENT” (QVET, priority 2021, published 2024)", "key": {"[1]": {"test_system": "PRRSV FL12", "experiment": "PRRSV animal model, 4-week-old pigs, intranasal spray", "type": "in vivo", "conditions": "1 mg intranasal", "method": "Validity assessment for target animals were performed using 4-week-old pigs. A total of 15 pigs were used, and randomly distributed into a positive PRRSV FL12 administration group, a rottlerin liposome 100 μg administration group (R-L 100 μg), a rottlerin liposome 1 mg administration group (R-L 1 mg), and a rottlerin raw material 1 mg administration group (R 1 mg), wherein four animals were used for each group (three animals were used for the rottlerin liposome 100 μg administration group).\nThe pigs of each group were inoculated with 10^5 TCID50/ml FL12, and after the inoculation, 2 ml of each therapeutic agent was intranasally administered by spray.\nSera were separated from the pigs on days 1, 3, 7, 14, and 19, and the pigs were euthanized and necropsied on day 19 of inoculation. The lung tissue of each pig was collected and lesions were evaluated, thereby calculating lung lesion scores. […]\nMicroscopic lung lesions were measured from 0 to 4 according to the degree of interstitial pneumonia as follows: (0, no lesions; 1, mild lesions or less than half being lesions; 2, common lesions or half being lesions; 3, moderately spread lesions or more than half being lesions; 4, severe lesions or full lesions). […]"}, "[2]": {"test_system": "PRRSV", "experiment": "PRRSV protein expression, fluorescent immunostaining of nucleocapsids", "type": "cell-based", "conditions": "10 μM; 48 hours after inoculation", "method": "To evaluate the inhibitory effect of rottlerin or rottlerin liposomes against PRRSV protein expression, the cells were treated with 5 μM rottlerin liposomes and 10 μM rottlerin, and 48 hours after inoculation, fluorescent immunostaining was performed using primary antibody for PRRSV nucleocapsids and Alexa 488 secondary antibody."}}}
{"smiles": "CC(=O)c1c(O)c(C)c(O)c(Cc2c(O)c3c(c(C(=O)/C=C/c4ccccc4)c2O)OC(C)(C)C=C3)c1O", "note": "[rottlerin]", "values": [{"measurement": "clinical symptom score", "setting": "[1]; scored daily 0 to 6", "result": "significant decrease in clinical symptom score on days 8, 16, 17, and 18"}, {"measurement": "area under curve (AUC) of viremia, qRT-PCR", "setting": "[1]; vs FL12 group, p≤0.05", "result": "significantly lower"}, {"measurement": "PRRSV virus proteins detected by fluorescent immunostaining", "setting": "[2]", "result": "virus proteins were not detected"}]}
